Results taken from US8546608B2, “Proteasome inhibitors and methods of using the same” (Cephalon, Inc., priority 2003, dated 2013).

How the values were obtained:
[1] = molecular target: T1, 20S Human Erythrocyte Proteasome (HEP) (Homo sapiens, UniProt P20618+P28074); test: Chymotrypsin-like activity of 20S Human Erythrocyte Proteasome (HEP), IC50 determination; format: biochemical; settings: assay of Example C, inhibition of HEP
T1 construct: 20S Human Erythrocyte Proteasome (HEP), purchased from Immatics Biotechnologies Inc; purchased Immatics Biotechnologies Inc., Tübingen, Germany; host or cells: human erythrocytes (natural source)
Outline: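 20S proteasome at 0.2 μg/mL (about 0.6 nM catalytic sites) in 20 mM Tris with 0.04% SDS, preincubated 15 min at 37° C with inhibitor before Suc-LLVY-AMC (100 μM final). AMC fluorescence read in the linear range; triplicates, IC50 from concentration series.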

[2] = molecular target: T2, proteasome in Molt-4 cells (human leukemia) (Homo sapiens, UniProt P20618+P28074); format: cell-based; settings: assay of Example E, inhibition of MOLT4; read-out: MOLT4 (EC50)
T2 sequence (P28074 60-263): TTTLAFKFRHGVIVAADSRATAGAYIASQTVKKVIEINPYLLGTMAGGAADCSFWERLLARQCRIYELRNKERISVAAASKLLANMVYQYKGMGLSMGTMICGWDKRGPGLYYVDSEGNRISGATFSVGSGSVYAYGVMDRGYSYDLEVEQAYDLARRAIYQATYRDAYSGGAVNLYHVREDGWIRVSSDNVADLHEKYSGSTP
T2 sequence (P20618 29-241): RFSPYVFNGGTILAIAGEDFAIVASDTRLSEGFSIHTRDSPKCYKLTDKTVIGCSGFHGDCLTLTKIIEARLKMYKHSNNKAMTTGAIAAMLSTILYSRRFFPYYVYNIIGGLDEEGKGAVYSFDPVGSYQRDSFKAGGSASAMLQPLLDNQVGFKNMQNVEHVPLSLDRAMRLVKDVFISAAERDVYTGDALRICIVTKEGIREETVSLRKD
Outline: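 Intact Molt-4 cells (6×10^6 cells/mL) in HEPES-buffered saline were preincubated with inhibitor 15 min at 37 °C, then given cell-permeable MeOSuc-FLF-AFC at 25 μM final.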

Row | Structure (SMILES) | IC50 [1] [µM] | EC50 [2] [µM]
1 | CC(C)C[C@H](NC(=O)[C@H](CCCNC(=N)N[N+](=O)[O-])NC(=O)c1ccoc1)B(O)O [E.2.28, Boronic acid, [(1R)-1-[[(2S)-5-[[imino(nitroamino)methyl]amino]-2-[(furan-3-carbonyl)amino]-1-oxopentyl]amino]-3-methylbutyl]] | < 0.01 | > 10
2 | CC(C)C[C@H](NC(=O)[C@H](CCCNC(=N)N[N+](=O)[O-])NC(=O)c1ccc2ccccc2n1)B(O)O [E.2.18, Boronic acid, [(1R)-1-[[(2S)-5-[[imino(nitroamino)methyl]amino]-2-[(quinoline-2-carbonyl)amino]-1-oxopentyl]amino]-3-methylbutyl]] | < 0.01 | 2 to 10
3 | CC(C)C[C@H](NC(=O)[C@H](CCCNC(=N)N[N+](=O)[O-])NC(=O)C1CCCCC1C)B(O)O (stereo partly drawn) [E.2.20, Boronic acid, [(1R)-1-[[(2S)-5-[[imino(nitroamino)methyl]amino]-2-[(2-methylcyclohexanecarbonyl)amino]-1-oxopentyl]amino]-3-methylbutyl]] | < 0.01 | 2 to 10
4 | Cc1ccc(C(=O)N[C@@H](CCCNC(=N)N[N+](=O)[O-])C(=O)N[C@@H](CC(C)C)B(O)O)s1 [D.7.12, Boronic acid, [(1R)-1-[[(2S)-5-[[imino(nitroamino)methyl]amino]-2-[(5-methylthiophene-2-carbonyl)amino]-1-oxopentyl]amino]-3-methylbutyl]] | < 0.01 | > 10
5 | Cc1ccc(CSCCC(=O)N[C@@H](CCCNC(=N)N[N+](=O)[O-])C(=O)N[C@@H](CC(C)C)B(O)O)cc1 [D.7.26, Boronic acid, [(1R)-1-[[(2S)-5-[[imino(nitroamino)methyl]amino]-2-[[3-[(4-methylbenzyl)sulfanyl]propanoyl]amino]-1-oxopentyl]amino]-3-methylbutyl]] | < 0.01 | 2 to 10
6 | CC(C)C[C@H](NC(=O)[C@H](CCCNC(=N)N[N+](=O)[O-])NC(=O)CC1CCCCCC1)B1O[C@@H]2C[C@@H]3C[C@@H](C3(C)C)[C@]2(C)O1 [D.3.43] | < 0.01 | < 0.2
7 | CCCCCCCCS(=O)(=O)N[C@@H](CCCNC(=N)N[N+](=O)[O-])C(=O)N[C@@H](CC(C)C)B1O[C@@H]2C[C@@H]3C[C@@H](C3(C)C)[C@]2(C)O1 [D.4.4, Octanesulfonamide, N-[(1S)-1-[[[(1R)-1-[(3aS,4S,6S,7aR)-hexahydro-3a,5,5-trimethyl-4,6-methano-1,3,2-benzodioxaborol-2-yl]-3-methylbutyl]amino]carbonyl]-4-[[imino(nitroamino)methyl]amino]butyl]] | < 0.01 | < 0.2
8 | CCCCc1ccc(C(=O)N[C@H](C(=O)N[C@@H](CC(C)C)B(O)O)[C@@H](C)O)cc1 [E.3, Boronic Acid, [(1R)-1-[[(2S,3R)-3-hydroxy-2-[(4-butylbenzoyl)amino]-1-oxobutyl]amino]-3-methylbutyl]] | < 0.01 | < 0.2
9 | CC(C)C[C@H](NC(=O)[C@H](CCCNC(=N)N[N+](=O)[O-])NC(=O)C1(c2ccccc2)CCCC1)B(O)O [E.2.3, Boronic acid, [(1R)-1-[[(2S)-5-[[imino(nitroamino)methyl]amino]-2-[(1-phenylcyclopentanecarbnyl)amino]-1-oxopentyl]amino]-3-methylbutyl]] | < 0.01 | 2 to 10

Results, then the compound that gave them:

Row | IC50 [1] [µM] | EC50 [2] [µM] | Structure (SMILES)
10 | < 0.01 | < 0.2 | CCCCCC(=O)NC[C@H](NC(=O)c1ccc(CCCC)cc1)C(=O)N[C@@H](CC(C)C)B(O)O [E.5.10, Boronic acid, [(1R)-1-[[(2S)-3-(hexanoylamino)-2-[(4-butylbenzoylamino)]-1-oxopropyl]amino]-3-methylbutyl]]
11 | < 0.01 | < 0.2 | CCCCc1ccc(C(=O)N[C@@H](CNC(=O)c2cnccn2)C(=O)N[C@@H](CC(C)C)B2O[C@@H]3C[C@@H]4C[C@@H](C4(C)C)[C@]3(C)O2)cc1 [D.18, 2-S-(4-Butylbenzoylamino)-3-(2-pyrazinocarbonylamino)-N-[(1S)-1-[[(1R)-1-[(3aS,4S,6S,7aR)-hexahydro-3a,5,5-trimethyl-4,6-methano-1,3,2-benzodioxaborol-2-yl]-3-methylbutyl]amino]carbonyl]]
12 | < 0.01 | < 0.2 | CCCCCC/C=C/CC(=O)N[C@@H](CCCNC(=N)N[N+](=O)[O-])C(=O)N[C@@H](CC(C)C)B1O[C@@H]2C[C@@H]3C[C@@H](C3(C)C)[C@]2(C)O1 [D.3.70, (E)-Dec-3-enoic acid amide,N-[(1S)-1-[[[(1R)-1-[(3aS,4S,6S,7aR)-hexahydro-3a,5,5-trimethyl-4,6-methano-1,3,2-benzodioxaborol-2-yl]-3-methylbutyl]amino]carbonyl]-4-[[imino(nitroamino)methyl]amino]butyl]]
13 | < 0.01 | < 0.2 | CCCCc1ccc(C(=O)N[C@@H](CC(N)=O)C(=O)N[C@@H](CC(C)C)B2O[C@@H]3C[C@@H]4C[C@@H](C4(C)C)[C@]3(C)O2)cc1 [D.8.20, 4-Butylbenzamide, N-[(1S)-1-[[[(1R)-1-[(3aS,4S,6S,7aR)-hexahydro-3a,5,5-trimethyl-4,6-methano-1,3,2-benzodioxaborol-2-yl]-3-methylbutyl]amino]carbonyl]-2-carbamoylethyl]]
14 | < 0.01 | < 0.2 | CCCCCCCCCCC(=O)N[C@@H](CCCNC(=N)N[N+](=O)[O-])C(=O)N[C@@H](CC(C)C)B1O[C@@H]2C[C@@H]3C[C@@H](C3(C)C)[C@]2(C)O1 [D.3.129, Undecanamide,N-[(1S)-1-[[[(1R)-1-[(3aS,4S,6S,7aR)-hexahydro-3a,5,5-trimethyl-4,6-methano-1,3,2-benzodioxaborol-2-yl]-3-methylbutyl]amino]carbonyl]-4-[[imino(nitroamino)methyl]amino]butyl]]
15 | < 0.01 | < 0.2 | Cc1ccc(CCCC(=O)N[C@@H](CCCNC(=N)N[N+](=O)[O-])C(=O)N[C@@H](CC(C)C)B2O[C@@H]3C[C@@H]4C[C@@H](C4(C)C)[C@]3(C)O2)cc1 [D.3.36, 4-(4-methylphenyl)butanamide,N-[(1S)-1-[[[(1R)-1-[(3aS,4S,6S,7aR)-hexahydro-3a,5,5-trimethyl-4,6-methano-1,3,2-benzodioxaborol-2-yl]-3-methylbutyl]amino]carbonyl]-4-[[imino(nitroamino)methyl]amino]butyl]]
16 | < 0.01 | < 0.2 | CCc1ccc(CCC(=O)N[C@@H](CCCNC(=N)N[N+](=O)[O-])C(=O)N[C@@H](CC(C)C)B2O[C@@H]3C[C@@H]4C[C@@H](C4(C)C)[C@]3(C)O2)cc1 [D.3.191, 3-[4-(Ethyl)phenyl]propanamide, N-[(1S)-1-[[[(1R)-1-[(3aS,4S,6S,7aR)-hexahydro-3a,5,5-trimethyl-4,6-methano-1,3,2-benzodioxaborol-2-yl]-3-methylbutyl]amino]carbonyl]-4-[[imino(nitroamino)methyl]amino]butyl]]
17 | < 0.1 | < 0.2 | CC(C)C[C@H](NC(=O)[C@@H](NC(=O)c1ccccc1)[C@@H](C)O)B1O[C@@H]2C[C@@H]3C[C@@H](C3(C)C)[C@]2(C)O1 [D.3.174, Benzamide,N-[(1S,2R)-1-[[[(1R)-1-[(3aS,4S,6S,7aR)-hexahydro-3a,5,5-trimethyl-4,6-methano-1,3,2-benzodioxaborol-2-yl]-3-methylbutyl]amino]carbonyl]-2-hydroxypropyl]]
